Laboratory results as given in US8247352B2, “Method of inhibiting ethylene production in plants” (The Regents of the University of California, priority 2005, dated 2012).
Several values for one entry are separate records, joined by “and”; a condition that tells them apart may be missing. Equal values may be shown once.

Legend:
ACC Oxidase = molecular target: T1, ACC Oxidase (Solanum lycopersicum, UniProt P05116); assay: Stoichiometry of O2 consumed to product formed (CO2 or ethylene), extent of uncoupling; type: biochemical, Lycopersicon esculentum; conditions: for Ratio O2 consumed to product formed, O2:CO2 / Ratio O2 consumed to product formed, O2:ethylene: saturating substrate, 30 mM ascorbate, ambient O2; for Ratio O2 consumed to product formed, O2:CO2: [14C]-CO2 trapping; for Ratio O2 consumed to product formed, O2:ethylene: ethylene by GC-FID
T1 construct: made in house; host or cells: Escherichia coli BL21 (DE3)pLysS
T1 sequence (P05116 whole entry): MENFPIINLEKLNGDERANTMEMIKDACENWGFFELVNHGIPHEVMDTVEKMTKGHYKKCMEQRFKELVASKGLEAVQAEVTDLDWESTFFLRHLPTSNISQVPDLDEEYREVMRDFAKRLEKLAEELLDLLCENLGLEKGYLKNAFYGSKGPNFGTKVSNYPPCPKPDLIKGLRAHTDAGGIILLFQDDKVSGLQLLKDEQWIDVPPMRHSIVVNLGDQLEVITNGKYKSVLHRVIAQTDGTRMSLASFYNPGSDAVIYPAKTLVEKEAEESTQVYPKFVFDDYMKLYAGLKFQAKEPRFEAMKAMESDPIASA
Method: Oxygen consumption was measured using a YSI model 5300 biological oxygen monitor as described above. Reactions contained D-[1-^14C]-Ala, [carboxyl-^14C]-ACC, α-[1-^14C]-AIB, or [1-^14C]-Gly in trace amounts. […] Reactions (1 mL) were initiated with a pre-incubated mixture of ACCO:Fe(II) in a 2:1 ratio. This was done to minimize free Fe(II) in solution. Final concentrations were typically 10 μM ACCO and 5 μM Fe(II). Reactions were quenched by addition of 3 μL of 0.1 M 3-[2-Pyridyl]-5,6-diphenyl-1,2,4-triazine-4,4′-disulfonic acid (FERROZINE®) and the O2 consumption rate was allowed to stabilize. The reaction (0.8 mL) was removed with a gas-tight syringe and injected into a small vial containing 0.1 mL 10% HCl that was inside a larger vial containing the CO2 trap (see above). The acidified reaction mixture and the CO2 trap were stirred for 2 h, and radioactivity from [^14C]—CO2 was determined as described above. Controls measuring the efficiency of the CO2 trap were done by injecting a known amount of [^14C]—NaHCO3 into the vial containing acid, as above, and measuring the amount of [^14C]—CO2 recovered. Efficiency of trapping was routinely ˜98%.
O2 consumption was measured using an Ocean Optics FOXY fiber optic oxygen sensor, with the fiber optic probe inserted through a syringe into an airtight septum, thus preventing ethylene escape. […] ACCO:Fe(II) (final concentrations 10 μM ACCO and 5 μM Fe(II)) was injected by syringe into a ½ dram vial covered with a septum with no headspace. The reaction was quenched as described above. A 10 mL syringe filled with air was used to transfer the reaction mixture to a 10 mL test tube covered with a septum using a cannula. The test tube was stirred vigorously for at least 4 hours before ethylene analysis. Ethylene was measured by injecting 2 mL of the headspace onto a GC equipped with a RT-Alumina GC column (final sample size was 250 μL). Ethylene was separated using ultrapure helium (grade 5) as the carrier gas at 40° C. detected by flame ionization (FID). The data were collected and the peak area was determined. Calibration for ethylene was done with Scotty IV mix 3 hydrocarbon standard (Scotty Specialty Gases). The ppm of ethylene was converted to nanomoles of ethylene per unit volume using the ideal gas law. Dilution of ethylene during sampling was taken into account in the calculations.
The extent of uncoupling for ACCO with both cyclic and acyclic substrate analogs was determined by comparing the amount of O2 consumed and product, either ethylene or CO2, formed. All reactions were carried out at saturating substrate and ascorbate concentrations to minimize potential O2 reaction in the absence of substrate. […] O2 measurements were quenched during or just as the linear phase of the reaction began to fall off due to either loss of Fe(II) from the enzyme or possible enzyme inactivation. The results distinguish between amounts of uncoupling.
For cyclic substrate analogs and ACC, the stoichiometry was determined by comparing O2 consumption with ethylene formation by GC-FID. […] The stoichiometry of O2 consumed to ethylene produced for ACC was 1.44 and to CO2 produced was 1.18, which is identical to that reported by Dong, et. al (Dong et al., 1992).

ACC Oxidase (ACCO, ACO1) = molecular target: T2, ACC Oxidase (ACCO, ACO1) (Solanum lycopersicum, UniProt P05116); assay: Initial velocity assays (rate of oxygen consumption) with ACC or substrate analogs; type: biochemical, Lycopersicon esculentum; conditions: for Km compared to ACC (in words) / Km increased by factor compared with ACC / Rate of O2 consumption by ACCO compared with ACC (in words): from Table 1; for Km / Vmax: O2 consumption, 25° C., pH 7.2, [Ascorbate] = 30 mM, [O2] = 258 μM, [CO2/bicarbonate] = 20 mM
T2 construct: made in house; host or cells: Escherichia coli BL21 (DE3)pLysS
T2 sequence (P05116 whole entry): as above
Method: ACCO from Lycopersicon esculentum (ACO1) was produced in Escherichia coli strain BL21 (DE3)pLysS and purified by a two-column purification procedure as previously described (Thrower, J. S. et al., 2001).
Initial velocities were measured by the rate of oxygen consumption at 25° C., pH 7.2, using a YSI model 5300 biological oxygen monitor as previously described (Thrower 2001) with minor modifications. Standard reaction mixture (1 ml) contained 100 mM MOPS, pH 7.2, 20 mM NaHCO3, 100 mM NaCl, 20 mM sodium ascorbate, 0.1 mg/ml BSA, and ACC or substrate analog at various concentrations. Oxygen concentrations were kept at atmospheric concentration and determined using the oxygen monitor that was calibrated with air saturated water (258 μM oxygen at 25° C.). Reactions were initiated with 2 μL ACCO reconstituted with equimolar Fe(NH4)2(SO4)2. Data from initial velocity experiments with varying substrate concentrations were fitted to the Michaelis-Menton equation using the program Kalideograph.
Either cyclic substrate analogs (including inhibitor Me-ACC, ACC-NH2, or ACC-OMe) or acyclic substrate analogs (AIB, D-Ala, or Gly) were used. […] Ascorbate and oxygen concentrations were kept constant at 30 mM and ˜258 μM, respectively.

ACCO:Fe(II) = molecular target: T3, ACCO:Fe(II) (Solanum lycopersicum, UniProt P05116); assay: Ethylene trapping assay: substrate turnover by ACCO:Fe(II), ethylene trapped as dibromoethane, GC-MS; type: biochemical, Lycopersicon esculentum; conditions: for Amount of ethylene formed during the reaction time relative to reaction with ACC: 1 hr incubation with ACCO:Fe(II); for Ethylene produced relative to predicted ethylene during the reaction time course: prediction from kcat
T3 construct: made in house; host or cells: Escherichia coli BL21 (DE3)pLysS
T3 sequence (P05116 whole entry): as above
Method: For detection of CO2, trace radiolabeled compound was used as appropriate. A small vial containing the reaction mixture minus enzyme was placed along side of another small vial containing the ethylene or CO2 trap. Both vials were placed in a large vial, which was capped with a septum. ACCO:Fe(II) was introduced into the reaction vial with a syringe and both the reaction vial and trap vial were stirred for 1 h. For [^14C]—CO2 trapping, a 1 mL solution of freshly prepared 10 M NaOH was used as the trapping agent. At the end of the reaction, the trap was removed and added to 15 mL scintillation fluid (Hionic-Fluor, Perkin Elmer) and radioactivity determined by scintillation counting. For ethylene, a […] solution of Br2 in CCl4 was used as the trap. A small amount of 2,5-dibromohexane was added to the trap as an internal standard. At the completion of the reaction, a small excess of 2,3-dimethyl-2-butene was added to the trap to quench unreacted Br2, and the trap was analyzed by GC-MS. Dibromoethane purchased from Aldrich was used as a standard.
The ability of ACCO to turnover ACC or the cyclic substrate analogs (MeACC, ACC-NH2, or ACC-OMe) was determined by the formation of ethylene. Each substrate analog or ACC was incubated for 1 hr with ACCO:Fe(II) in a closed reaction vial containing an ethylene trap that would convert ethylene to dibromoethane. At the end of the reaction time, the ethylene trap was quenched and analyzed for dibromoethane by GC-MS. Reactions with BSA/Fe(II) were used as a control for non-enzymatic ethylene formation. The formation of ethylene was detected in the reaction vials of ACC and all the cyclic analogs in the presence of ACCO:Fe(II). No ethylene was detected in any of the BSA/Fe(II) reactions. The amount of ethylene formed during the reaction time from the cyclic analogs was lower than that from the reaction with ACC (MeACC=14%, ACCNH2=13%, ACC-OMe=79%). If the rates of O2 consumption for the reactions with the different substrates are considered, the kcat for ACC-OMe is approximately 75% of that for ACC, which would be consistent with the amount of ethylene produced during the time course of the reaction. […] Although the purity of both MeACC and ACCNH2 by elemental analysis was determined >95%, it is possible that a small amount of contaminating ACC could be responsible for the ethylene formed in these reactions. To determine whether ethylene was being formed from the substrate analog and not from contaminating ACC, reactions with each analog were done in the presence of increasing concentration of ACCO:Fe(II). In the case of a small amount of contamination where the ACC would be quickly depleted during the reaction, the result would be a non-linear dependence of ethylene production with increasing ACCO concentration.

ACCO = molecular target: T4, ACCO (Solanum lycopersicum, UniProt P05116); assay: Labeling of ACCO by radiolabeled N-Me-ACC (centrifugal filtration, scintillation counting); type: binding, Lycopersicon esculentum; conditions: approximately equal concentrations, standard reaction conditions, quenched with Ferrozine
T4 construct: made in house; host or cells: Escherichia coli BL21 (DE3)pLysS
T4 sequence (P05116 whole entry): as above
Method: Radiolabeled N-Me-ACC was incubated with ACCO (approximately equal concentrations) in standard reaction conditions. The reaction was quenched using Ferrozine. The solution was placed in a Millipore 10K NMWL Ultrafree®-MC Centrifugal Filter Unit and centrifuged for 15 min. at 14K rpm. The remaining protein (˜20 μL) was washed with 3×1 mL of either water, reaction buffer, or 0.1% TFA by repeated centrifugation. The protein was collected and radioactivity determined by scintillation counting in 12 mL EcoLite^+ scintillation fluid.

Row | SMILES | Products detected (ACC Oxidase) | Ratio O2 consumed to product formed, O2:CO2 (ACC Oxidase) | Ratio O2 consumed to product formed, O2:ethylene (ACC Oxidase) | Km compared to ACC (in words) (ACC Oxidase (ACCO, ACO1)) | kcat slower than the kcat for ACC (ACC Oxidase (ACCO, ACO1); from rates of O2 consumption) [%] | Amount of ethylene formed during the reaction time relative to reaction with ACC (ACCO:Fe(II)) [%] | Ethylene produced relative to predicted ethylene during the reaction time course (ACCO:Fe(II)) | Km (ACC Oxidase (ACCO, ACO1)) [µM] | Vmax (ACC Oxidase (ACCO, ACO1)) [min⁻¹] | Km increased by factor compared with ACC (ACC Oxidase (ACCO, ACO1)) [fold] | kcat as percent of that for ACC (ACC Oxidase (ACCO, ACO1); from rates of O2 consumption) | Rate of O2 consumption by ACCO compared with ACC (in words) (ACC Oxidase (ACCO, ACO1)) | Labeling of ACCO by radiolabeled compound (ACCO)
1 | NC1(C(=O)O)CC1 [ACC, 1-aminocyclopropane-1-carboxylic acid, reference compound] | Ethylene, CO2 | 1.18 and 1.2 and 1.18 ± 0.17 | 1.44 and 1.44 ± 0.22 | – | – | – | – | – | – | – | – | – | –
2 | NC(=O)C1(N)CC1 [ACC-NH2] | Ethylene | – | 4.40 ± 1.56 | not significantly altered | ~30 | 13 | about half the predicted ethylene | – | – | – | – | – | –
3 | COC(=O)C1(N)CC1 [ACC-OMe] | Ethylene | – | 1.81 ± 0.72 | – | – | 79 | – | 2760 ± 550 | 27.3 ± 1.7 | ~28 | approximately 75% | – | –
4 | CC(C)(N)C(=O)O [AIB, α-aminoisobutyric acid] | Acetone, CO2 | 1.7 and 1.68 ± 0.12 | – | – | – | – | – | – | – | 9.3 | – | comparable | –
5 | C[C@@H](N)C(=O)O [D-Alanine, D-alanine] | Acetaldehyde, CO2 | 3.46 ± 0.51 | – | – | – | – | – | – | – | 44.7 | – | comparable | –
6 | NCC(=O)O [Glycine, glycine] | CO2 | – | – | – | – | – | – | – | – | – | – | – | –
7 | CNC1(C(=O)O)CC1 [N-Me-ACC] | Ethylene | – | 3.17 ± 0.86 | not significantly altered | ~30 | 14 | about half the predicted ethylene | 107 ± 21 | 12.2 ± 0.5 | – | – | – | irreversibly labels ACCO in a short period of time
